According to patent US9290476B2, “Methylene linked quinolinyl modulators of RORγt” (Janssen Pharmaceutica NV, priority 2012, dated 2016):
Structures can show the parent of a compound that is named as a salt. Where two headings read alike, the source gives them in different places.

How the values were obtained:
[1] = target: human RORγt ligand binding domain (RORγt LBD) (Homo sapiens (Human), UniProt P51449); assay: RORγt ThermoFluor assay (thermal shift binding affinity); settings: estimated from thermal shift
Sequence of human RORγt ligand binding domain (RORγt LBD) (P51449 other isoform, or with tags, fused parts or gaps): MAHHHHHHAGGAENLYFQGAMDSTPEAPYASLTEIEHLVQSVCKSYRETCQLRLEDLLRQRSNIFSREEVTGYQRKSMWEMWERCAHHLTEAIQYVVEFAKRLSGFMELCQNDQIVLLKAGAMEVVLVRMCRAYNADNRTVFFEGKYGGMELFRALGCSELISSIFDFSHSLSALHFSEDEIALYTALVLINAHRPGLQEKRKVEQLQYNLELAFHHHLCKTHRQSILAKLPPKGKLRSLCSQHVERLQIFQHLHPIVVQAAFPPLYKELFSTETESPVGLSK
Outline: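 Thermal shift used 0.065 mg/mL RORγt LBD with 60 μM 1,8-ANS in 100 mM Hepes pH 7.0, 10 mM NaCl, 2.5 mM GSH and 0.002% Tween-20, heated at 1 °C/min. Fluorescence was excited at 380–400 nm and emission read at 500 nm.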

human RORγt LBD = human RORγt LBD (Homo sapiens (Human), UniProt P51449); assay: RORγt reporter assay (GAL4-RORγt LBD luciferase in HEK293T cells); type: cell-based; settings: for IC50 / RORγt reporter Assay, % inhibition @ 6 μM: HEK293T cells; for IC50: 24 hours compound treatment; for inhibition at 6 µM: HEK-293T, read-out: RORγt reporter Assay, % inhibition @ 6 μM, HEK293T cells, 6 μM
Sequence of human RORγt LBD (P51449 258-518): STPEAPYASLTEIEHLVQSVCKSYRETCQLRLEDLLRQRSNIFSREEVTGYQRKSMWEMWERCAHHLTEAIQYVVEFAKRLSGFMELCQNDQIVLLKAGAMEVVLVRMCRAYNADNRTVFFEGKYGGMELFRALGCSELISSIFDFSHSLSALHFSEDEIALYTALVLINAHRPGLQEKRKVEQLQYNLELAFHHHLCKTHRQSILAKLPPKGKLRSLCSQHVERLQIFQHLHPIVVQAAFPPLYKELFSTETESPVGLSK
Outline: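 HEK293T cells transiently co-transfected with GAL4-DBD–wild-type human RORγt LBD (pBIND) and GAL4-responsive firefly luciferase reporter (pGL4.31); renilla luciferase from pBIND normalises transfection/viability. Cells in phenol-red-free DMEM, 5% lipid-reduced FCS, treated with compound 24 h. Firefly/renilla ratio plotted against compound concentration.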

[2] = test system: IL-17 production by CD4 T cells; assay: Human Th17 assay (IL-17 production by CD4 T cells under Th17 differentiation); type: cell-based; settings: human CD4+ T cells, IL-17 after 3 days, read-out: Human Th17 Assay, IC50 μM
Outline: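 Healthy-donor peripheral CD4+ T cells (1.5×10^5/well) preincubated 1 h with titrated compound (0.2% DMSO), then differentiated with anti-CD3/CD28 beads, anti-IL4, anti-IFNγ, IL1β, IL23, IL6, TGFβ and IL2 for 3 days at 37 °C. Supernatant IL-17 quantified by MSD electrochemiluminescence against a standard curve; IC50 fitted.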

| Kd [1] [nM] | IC50 (human RORγt LBD) [µM] | inhibition at 6 µM (human RORγt LBD) [%] | IC50 [2] [µM] | IC50 ([2]; Homo sapiens, CD4+ T, 72 h) [µM] | RORγt reporter Assay, % inhibition @ 6 μM (human RORγt LBD) [%] | SMILES |
| --- | --- | --- | --- | --- | --- | --- |
| 93 | 0.13 | 102 | 0.19 |  |  | COc1nc2c(C)cc(C(O)(c3ccc(C(F)(F)F)nc3)c3cncn3C)cc2c(Cl)c1Cc1ccc(-n2cccn2)cc1 (single isomer, unassigned) [Example 29B, (3-(4-(1H-pyrazol-1-yl)benzyl)-4-chloro-2-methoxy-8-methylquinolin-6-yl)(1-methyl-1H-imidazol-5-yl)(6-(trifluoromethyl)pyridin-3-yl)methanol] |
| 2.8 | 0.091 | 96 |  | 0.016 |  | COc1ccc(C(O)(c2ccc3nc(OC)c(Cc4ccc(-n5cccn5)cc4)c(Cl)c3c2)c2cncn2C)cn1 (stereo not drawn) [Example 22, (3-(4-(1H-Pyrazol-1-yl)benzyl)-4-chloro-2-methoxyquinolin-6-yl)(6-methoxypyridin-3-yl)(1-methyl-1H-imidazol-5-yl)methanol.TFA] |
| 4.2 | 0.046 |  | 0.045 |  | 100 | Cc1cc(C(O)(c2ccc(C(F)(F)F)nc2)c2cncn2C)cc2c(C#N)c(Cc3ccc(-n4cccn4)cc3)c(C#N)nc12 (single isomer, unassigned) [Example 65C, 3-(4-(1H-pyrazol-1-yl)benzyl)-6-(hydroxy(1-methyl-1H-imidazol-5-yl)(6-(trifluoromethyl)pyridin-3-yl)methyl)-8-methylquinoline-2,4-dicarbonitrile] |
| 0.83 | 0.0065 | 85 |  | 0.085 |  | OC(c1cccnc1)(c1ccc2nc(Cl)c(Cc3ccc(Cl)cc3)c(Cl)c2c1)c1cncs1 (stereo not drawn) [Example 9, (2,4-Dichloro-3-(4-chlorobenzyl)quinolin-6-yl)(pyridin-3-yl)(thiazol-5-yl)methanol.TFA] |
| 1.4 | 0.0042 | 100 |  | 0.0014 |  | COc1nc2ccc(C(O)(c3cnnn3C)C3CN(C(C)=O)C3)cc2c(Cl)c1Cc1ccc(C(F)(F)F)cc1 (racemic) [Example 97A, 1-(3-((4-Chloro-2-methoxy-3-(4-(trifluoromethyl)benzyl)quinolin-6-yl)(hydroxy)(1-methyl-1H-1,2,3-triazol-5-yl)methyl)azetidin-1-yl)ethanone] |
| 3.8 | 0.026 | 101 |  | 0.015 |  | COc1ccc(C(O)(c2ccc3nc(OC)c(Cc4ccc(-n5cccn5)cc4)c(Cl)c3c2)c2cncs2)cn1 (stereo not drawn) [Example 20A, (3-(4-(1H-Pyrazol-1-yl)benzyl)-4-chloro-2-methoxyquinolin-6-yl)(6-methoxypyridin-3-yl)(thiazol-5-yl)methanol] |
| 0.017 | 0.16 | 87 |  | 0.01 |  | COc1nc2ccc(C(O)(c3cnc(C)n3C)c3cnc(C)n3C)cc2c(Cl)c1Cc1ccc(C(F)(F)F)cc1 [Example 93, (4-Chloro-2-methoxy-3-(4-(trifluoromethyl)benzyl)quinolin-6-yl)bis(1,2-dimethyl-1H-imidazol-5-yl)methanol] |
| 3.5 | 0.11 |  | 0.15 |  | 102 | COc1nc2ccc(C(O)(c3ccc(C(F)(F)F)nc3)c3cncn3C)cc2c(Cl)c1Cc1cc2ccccc2s1 (single isomer, unassigned) [Example 37C, (3-(benzo[b]thiophen-2-ylmethyl)-4-chloro-2-methoxyquinolin-6-yl)(1-methyl-1H-imidazol-5-yl)(6-(trifluoromethyl)pyridin-3-yl)methanol] |
| 10 | 0.058 | 100 |  | 0.04 |  | OC(c1cccnc1)(c1cccc(F)c1)c1ccc2nc(Cl)c(Cc3ccc(-n4cccn4)cc3)c(Cl)c2c1 (stereo not drawn) [Example 48, (3-(4-(1H-Pyrazol-1-yl)benzyl)-2,4-dichloroquinolin-6-yl)(3-fluorophenyl)(pyridin-3-yl)methanol] |
| 7.8 | 0.028 | 100 |  | 0.12 |  | COc1nc2ccc(C(O)(c3ccc(C(F)(F)F)nc3)c3cncn3C)cc2c(Cl)c1Cc1cc2ccccc2s1 (stereo not drawn) [Example 37A, (3-(Benzo[b]thiophen-2-ylmethyl)-4-chloro-2-methoxyquinolin-6-yl)(1-methyl-1H-imidazol-5-yl)(6-(trifluoromethyl)pyridin-3-yl)methanol.TFA] |
| 250 | 0.46 | 101 |  | 1.8 |  | COc1nc2ccc(C(O)(c3ccc(Cl)cc3)c3cncn3C)cc2c(OC)c1Cc1ccc(-n2cccn2)cc1 (stereo not drawn) [Example 34, (3-(4-(1H-Pyrazol-1-yl)benzyl)-2,4-dimethoxyquinolin-6-yl)(4-chlorophenyl)(1-methyl-1H-imidazol-5-yl)methanol.TFA] |
| 23 | 0.098 |  |  | 0.057 | 93 | COc1nc2ccc(C(O)(c3ccc(F)cc3)c3cncn3C)cc2c(Cl)c1Cc1ccc(S(C)(=O)=O)cc1 (single isomer, unassigned) [Example 54C, (4-chloro-2-methoxy-3-(4-(methylsulfonyl)benzyl)quinolin-6-yl)(4-fluorophenyl)(1-methyl-1H-imidazol-5-yl)methanol] |
| 1300 | 0.17 | 95 |  | 0.091 |  | CCN(CC)c1nc2ccc(C(O)(c3ccc(C(F)(F)F)nc3)c3cncn3C)cc2c(C#N)c1Cc1ccc(-n2cccn2)cc1 (single isomer, unassigned) [Example 74B, 3-(4-(1H-Pyrazol-1-yl)benzyl)-2-(diethylamino)-6-(hydroxy(1-methyl-1H-imidazol-5-yl)(6-(trifluoromethyl)pyridin-3-yl)methyl)quinoline-4-carbonitrile] |
| 0.56 | ~0.004 | 98 |  | 0.012 |  | CCc1nc2ccc(C(O)(c3cnnn3C)C3CN(C(C)=O)C3)cc2c(Cl)c1Cc1ccc(C(F)(F)F)cc1 (single isomer, unassigned) [Example 90B, 1-(3-((4-Chloro-2-ethyl-3-(4-(trifluoromethyl)benzyl)quinolin-6-yl)(hydroxy)(1-methyl-1H-1,2,3-triazol-5-yl)methyl)azetidin-1-yl)ethanone] |
| 4.9 | 0.081 |  | 0.09 |  | 97 | COc1nc2c(C)cc(C(O)(c3ccc(C(F)(F)F)nc3)c3cncn3C)cc2c(Cl)c1Cc1ccc(-n2cccn2)cc1 (single isomer, unassigned) [Example 29C, (3-(4-(1H-pyrazol-1-yl)benzyl)-4-chloro-2-methoxy-8-methylquinolin-6-yl)(1-methyl-1H-imidazol-5-yl)(6-(trifluoromethyl)pyridin-3-yl)methanol] |
| 0.12 |  |  | 0.002 |  | 103 | COc1nc2ccc(C(O)(c3cnnn3C)c3cnc(C)n3C)cc2c(C#N)c1Cc1ccc(C(F)(F)F)cc1 (single isomer, unassigned) [Example 81C, 6-((1,2-Dimethyl-1H-imidazol-5-yl)(hydroxy)(1-methyl-1H-1,2,3-triazol-5-yl)methyl)-2-methoxy-3-(4-(trifluoromethyl)benzyl)quinoline-4-carbonitrile] |
